Test results published in US9073830B2 (Hyundai Pharm Co., Ltd., priority 2011, dated 2015).

Assays:
human 11β-HSD1 = biological target: T1, human 11β-HSD1 (Homo sapiens, UniProt P28845); assay: Enzyme activity analysis on human 11β-HSD1 (HTRF cortisol, liver microsomes); assay type: biochemical; conditions: first value of cell
T1 construct: 100 ug/ml human/mouse liver microsomes; from tissue; host or cells: human liver microsomes
Method in brief: (§1)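 Cortisol generated by mouse or human liver microsome 11β-HSD1 during 2 h at 37° C., measured by HTRF competition (cryptate anti-cortisol antibody, d2-cortisol, 2 h room temperature) against a cortisol standard curve. IC50 from percent inhibition versus no-compound control.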

mouse 11β-HSD1 = biological target: T2, mouse 11β-HSD1 (Mus musculus, UniProt P50172); assay: Enzyme activity analysis on mouse 11β-HSD1 (HTRF cortisol, liver microsomes); assay type: biochemical; conditions: second value of cell
T2 construct: 100 ug/ml human/mouse liver microsomes; from tissue; host or cells: mouse liver microsomes
T2 sequence (P50172 whole entry): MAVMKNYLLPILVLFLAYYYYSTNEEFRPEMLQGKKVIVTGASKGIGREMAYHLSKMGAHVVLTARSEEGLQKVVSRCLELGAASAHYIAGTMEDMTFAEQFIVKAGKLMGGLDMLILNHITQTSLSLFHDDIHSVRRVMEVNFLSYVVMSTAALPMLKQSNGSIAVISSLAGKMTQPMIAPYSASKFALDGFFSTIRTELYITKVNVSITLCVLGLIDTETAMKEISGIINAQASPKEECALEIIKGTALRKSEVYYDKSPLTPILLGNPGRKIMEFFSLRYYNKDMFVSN
Method in brief: as §1

T1 sequence (P28845 whole entry): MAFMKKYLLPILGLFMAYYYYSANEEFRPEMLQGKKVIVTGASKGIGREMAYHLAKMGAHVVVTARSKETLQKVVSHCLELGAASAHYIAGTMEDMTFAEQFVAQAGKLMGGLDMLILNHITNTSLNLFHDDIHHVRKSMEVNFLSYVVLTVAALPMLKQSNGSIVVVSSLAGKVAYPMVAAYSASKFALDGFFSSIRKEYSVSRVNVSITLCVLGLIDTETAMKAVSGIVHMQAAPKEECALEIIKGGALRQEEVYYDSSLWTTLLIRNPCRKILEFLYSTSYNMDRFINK

| SMILES | IC50 (human 11β-HSD1) | IC50 (mouse 11β-HSD1) |
| --- | --- | --- |
| CN(C(C)(C)C(=O)NC1C2CC3CC1CC(C(N)=O)(C3)C2)S(=O)(=O)c1c(Cl)cccc1Cl (stereo not shown) [compound 192, N-4-(2-(2,6-dichloro-N-methylphenylsulfonamido)-2-methylpropanamido)adamantane-1-carboxyamide] | 0.008 µM | 0.002 µM |
| CN(C(C)(C)C(=O)NC1C2CC3CC1CC(C(N)=O)(C3)C2)S(=O)(=O)c1ccccc1C(F)(F)F (stereo not shown) [compound 193, N-4-(2-(2-trifluoromethyl-N-methylphenylsulfonamido)-2-methylpropanamido)adamantane-1-carboxyamide] | 0.007 µM | 0.012 µM |
| COc1cccc(F)c1S(=O)(=O)N(C)C(C)(C)C(=O)NC1C2CC3CC1CC(C(N)=O)(C3)C2 (stereo not shown) [compound 194, N-4-(2-(2-methoxy-6-fluoro-N-methylphenylsulfonamido)-2-methylpropanamido)adamantane-1-carboxyamide] | 0.012 µM | 0.006 µM |
| Cc1ccccc1S(=O)(=O)N(C)C(C)(C)C(=O)NC1C2CC3CC1CC(C(N)=O)(C3)C2 (stereo not shown) [compound 196] | 0.003 µM | 0.005 µM |
| CN(C(C)(C)C(=O)NC1C2CC3CC1CC(C(N)=O)(C3)C2)S(=O)(=O)c1ccccc1[N+](=O)[O-] (stereo not shown) [compound 197, N-4-(2-(2-nitro-N-methylphenylsulfonamido)-2-methylpropanamido)adamantane-1-carboxyamide] | 0.004 µM | 0.008 µM |
| CN(C(C)(C)C(=O)NC1C2CC3CC1CC(C(N)=O)(C3)C2)S(=O)(=O)c1cccc(Cl)c1Cl (stereo not shown) [compound 198] | 0.008 µM | 0.003 µM |
| CN(C1(C(=O)NC2C3CC4CC2CC(C(N)=O)(C4)C3)CCC1)S(=O)(=O)c1ccccc1[N+](=O)[O-] (stereo not shown) [compound 199, N-4-(1-(N-methyl-2-nitrophenylsulfonamido)cyclobutanecarboxyamido)adamantane-1-carboxyamide] | 0.004 µM | 0.016 µM |
| Cc1c(Cl)cccc1S(=O)(=O)N(C)C(C)(C)C(=O)NC1C2CC3CC(C2)CC1C3 (stereo not shown) [compound 200, N-(adamantane-2-yl)-2-(3-chloro-2-methyl-N-methylphenylsulfonamido)-2-methylpropanamide] | 0.023 µM | 0.143 µM |
| CN(C(C)(C)C(=O)NC1C2CC3CC(C2)CC1C3)S(=O)(=O)c1ccccc1C(F)(F)F (stereo not shown) [compound 201, N-(adamantane-2-yl)-2-(2-trifluoromethyl-N-methylphenylsulfonamido)-2-methylpropan amide] | 0.012 µM | 0.088 µM |
| CN(C(C)(C)C(=O)NC1C2CC3CC1CC(O)(C3)C2)S(=O)(=O)c1ccccc1F (stereo not shown) [compound 202, N-(5-hydroxyadamantane-2-yl)-2-(2-fluoro-N-methylphenylsulfonamido)-2-methylpropanamide] | 0.011 µM | 0.208 µM |
| CN(C(C)(C)C(=O)NC1C2CC3CC1CC(O)(C3)C2)S(=O)(=O)c1cccc(Cl)c1Cl (stereo not shown) [compound 203, N-(5-hydroxyadamantane-2-yl)-2-(2,3-dichloro-N-methylphenylsulfonamido)-2-methylpropanamide] | 0.01 µM | 0.039 µM |
| Cc1c(Cl)cccc1S(=O)(=O)N(C)C(C)(C)C(=O)NC1C2CC3CC1CC(O)(C3)C2 (stereo not shown) [compound 204, N-(5-hydroxyadamantane-2-yl)-2-(2-methyl-3-chloro-N-methylphenylsulfonamido)-2-methylpropanamide] | 0.004 µM | 0.042 µM |
| CN(C(C)(C)C(=O)NC1C2CC3CC1CC(O)(C3)C2)S(=O)(=O)c1ccccc1[N+](=O)[O-] (stereo not shown) [compound 205, N-(5-hydroxyadamantane-2-yl)-2-(2-nitro-N-methylphenylsulfonamido)-2-methylpropan amide] | 0.005 µM | 0.068 µM |
| CN(C(C)(C)C(=O)NC1C2CC3CC1CC(O)(C3)C2)S(=O)(=O)c1ccccc1Br (stereo not shown) [compound 206, N-(5-hydroxyadamantane-2-yl)-2-(2-bromo-N-methylphenylsulfonamido)-2-methylpropanamide] | 0.005 µM | 0.041 µM |
| Cc1ccccc1S(=O)(=O)N(C)C(C)(C)C(=O)NC1C2CC3CC1CC(O)(C3)C2 (stereo not shown) [compound 207, N-(5-hydroxyadamantane-2-yl)-2-(2-methyl-N-methylphenylsulfonamido)-2-methylpropanamide] | 0.006 µM | 0.107 µM |
| CN(C(C)(C)C(=O)NC1C2CC3CC1CC(O)(C3)C2)S(=O)(=O)c1ccccc1C(F)(F)F (stereo not shown) [compound 208, N-(5-hydroxyadamantane-2-yl)-2-(2-trifluoromethyl-N-methylphenylsulfonamido)-2-methylpropanamide] | 0.006 µM | 0.092 µM |
| CCN(C(C)(C)C(=O)NC1C2CC3CC1CC(C(N)=O)(C3)C2)S(=O)(=O)c1ccccc1C (stereo not shown) [compound 209, N-4-(2-(2-methyl-N-ethylphenylsulfonamido)-2-methylpropanamido)adamantane-1-carboxyamide] | 0.008 µM | 0.182 µM |
| CCN(C(C)(C)C(=O)NC1C2CC3CC1CC(C(N)=O)(C3)C2)S(=O)(=O)c1ccccc1C(F)(F)F (stereo not shown) [compound 210, N-4-(2-(2-trifluoromethyl-N-ethylphenylsulfonamido)-2-methylpropanamido)adamantane-1-carboxyamide] | 0.006 µM | 1.44 µM |

| SMILES | IC50 (human 11β-HSD1) | IC50 (mouse 11β-HSD1) |
| --- | --- | --- |
| CCN(C(C)(C)C(=O)NC1C2CC3CC1CC(C(N)=O)(C3)C2)S(=O)(=O)c1ccccc1F (stereo not shown) [compound 211, N-4-(2-(2-fluoro-N-ethylphenylsulfonamido)-2-methylpropanamido)adamantane-1-carboxyamide] | 0.006 µM | 0.079 µM |
| CCN(C(C)(C)C(=O)NC1C2CC3CC1CC(C(N)=O)(C3)C2)S(=O)(=O)c1cccc(Cl)c1Cl (stereo not shown) [compound 212] | 0.024 µM | 0.191 µM |
| CCN(C(C)(C)C(=O)NC1C2CC3CC1CC(C(N)=O)(C3)C2)S(=O)(=O)c1c(F)cccc1F (stereo not shown) [compound 213, N-4-(2-(2,6-difluoro-N-ethylphenylsulfonamido)-2-methylpropanamido)adamantane-1-carboxyamide] | 0.005 µM | 0.235 µM |
| CCN(C(C)(C)C(=O)NC1C2CC3CC1CC(C(N)=O)(C3)C2)S(=O)(=O)c1cccc(Cl)c1C (stereo not shown) [compound 215] | 0.004 µM | 0.284 µM |
| CCN(C(C)(C)C(=O)NC1C2CC3CC1CC(C(N)=O)(C3)C2)S(=O)(=O)c1ccccc1[N+](=O)[O-] (stereo not shown) [compound 216] | 0.009 µM | 0.974 µM |
| CCN(C(C)(C)C(=O)NC1C2CC3CC1CC(C(N)=O)(C3)C2)S(=O)(=O)c1ccccc1Cl (stereo not shown) [compound 217] | 0.004 µM | 0.098 µM |
| CCCN(C(C)(C)C(=O)NC1C2CC3CC1CC(C(N)=O)(C3)C2)S(=O)(=O)c1ccccc1C(F)(F)F (stereo not shown) [compound 218, N-4-(2-(2-trifluoromethyl-N-propylphenylsulfonamido)-2-methylpropanamido)adamantane-1-carboxyamide] | 0.053 µM | 0.462 µM |
| CC(C)(NS(=O)(=O)c1ccccc1N)C(=O)NC1C2CC3CC1CC(C(N)=O)(C3)C2 (stereo not shown) [compound 219, N-4-(2-(2-aminophenylsulfonamido)-2-methylpropanamido)adamantane-1-carboxyamide] | 0.085 µM | 0.117 µM |
| NC(=O)C12CC3CC(C1)C(NC(=O)C1(NS(=O)(=O)c4ccccc4N)CCCCC1)C(C3)C2 (stereo not shown) [compound 220, N-4-(1-(2-aminophenylsulfonamido)cyclohexanecarboxyamido)adamantane-1-carboxyamide] | 0.032 µM | 0.266 µM |
| NC(=O)C12CC3CC(C1)C(NC(=O)C1(NS(=O)(=O)c4ccccc4N)CCC1)C(C3)C2 (stereo not shown) [compound 221, N-4-(1-(2-aminophenylsulfonamido)cyclobutanecarboxyamido)adamantane-1-carboxyamide] | 0.079 µM | 0.151 µM |
| CN(C1(C(=O)NC2C3CC4CC2CC(C(N)=O)(C4)C3)CCC1)S(=O)(=O)c1ccccc1N (stereo not shown) [compound 222, N-4-(1-(N-methyl-2-aminophenylsulfonamido)cyclobutanecarboxyamido)adamantane-1-carboxyamide] | 0.005 µM | 0.004 µM |
| CN(C(C)(C)C(=O)NC1C2CC3CC1CC(C(N)=O)(C3)C2)S(=O)(=O)c1ccccc1N (stereo not shown) [compound 223, N-4-(2-(2-amino-N-methylphenylsulfonamido)-2-methylpropanamido)adamantane-1-carboxyamide] | 0.011 µM | 0.023 µM |
| CCN(C(C)(C)C(=O)NC1C2CC3CC1CC(C(N)=O)(C3)C2)S(=O)(=O)c1ccccc1N (stereo not shown) [compound 224, N-4-(2-(2-amino-N-ethylphenylsulfonamido)-2-methylpropanamido)adamantane-1-carboxyamide] | 0.011 µM | 0.154 µM |
| CN(C(C)(C)C(=O)NC1C2CC3CC1CC(O)(C3)C2)S(=O)(=O)c1ccccc1N (stereo not shown) [compound 225] | 0.011 µM | 0.083 µM |
| COc1ccccc1S(=O)(=O)NC(C)(C)C(=O)NC1C2CC3CC1CC(C(N)=O)(C3)C2 (stereo not shown) [compound 226, 4-[2-(2-methoxy-benzenesulfonylamino)-2-methyl-propionylamino]-adamantane-1-carboxylic acid amide] | 0.062 µM | 0.038 µM |
| CCN(CC)C(=O)C12CC3CC(C1)C(NC(=O)C(C)(C)NS(=O)(=O)c1ccccc1Cl)C(C3)C2 (stereo not shown) [compound 227, 4-[2-(2-chloro-benzenesulfonylamino)-2-methyl-propionylamino]-adamantane-1-carboxylic acid diethylamide] | > 2.5 µM | > 2.5 µM |
| CC(C)NC(=O)C12CC3CC(C1)C(NC(=O)C(C)(C)NS(=O)(=O)c1ccccc1Br)C(C3)C2 (stereo not shown) [compound 228, 4-[2-(2-bromo-benzenesulfonylamino)-2-methyl-propionylamino]-adamantane-1-carboxylic acid isopropylamide] | > 2.5 µM | > 2.5 µM |
